Usually EC50 stands for the midpoint of the concentration-response curve. High values mean weaker potency, low ones greater potency.

For 30 compounds, EC50 results are on record in patent publication US8669271B2 (Boehringer Ingelheim International GmbH, priority 2010, dated 2014).

The target in the test is T1, human GPR119 (Homo sapiens, UniProt Q8TDV5).
T1 construct: expression vector for human GPR119 cDNA (Acc. No. NP_848566); expressed in transfected cells
T1 sequence (Q8TDV5 1-335): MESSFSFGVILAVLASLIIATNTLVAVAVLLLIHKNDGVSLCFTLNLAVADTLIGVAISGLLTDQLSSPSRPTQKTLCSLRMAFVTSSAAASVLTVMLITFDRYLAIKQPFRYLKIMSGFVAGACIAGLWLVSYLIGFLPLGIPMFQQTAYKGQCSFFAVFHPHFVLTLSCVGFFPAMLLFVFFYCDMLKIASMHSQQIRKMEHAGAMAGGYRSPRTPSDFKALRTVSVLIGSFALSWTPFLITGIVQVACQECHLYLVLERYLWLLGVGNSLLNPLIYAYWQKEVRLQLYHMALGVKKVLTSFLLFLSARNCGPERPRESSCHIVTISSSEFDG
The experiment in a line: AlphaScreen cAMP assay in Min-6/hGPR119 cells (activation of GPR119, intracellular cAMP). The test is classed as cell-based. The conditions noted are these: MIN6 cells stably transfected with human GPR119; cAMP by AlphaScreen after 45 minutes incubation at room temperature. The procedure: The compounds of formula I according to the invention modulate the activity of the G-protein-coupled receptor GPR119. The effect of the compounds on the activation of GPR119 and on the stimulation of intracellular cAMP concentration is determined using the AlphaScreen cAMP Assay Kit (Cat.No.#6760625R) made by PerkinElmer.
MIN6 cells [Miyazaki J et al. Endocrinology. 1990 July; 127(1):126-32] are stably transfected with an expression vector for human GPR119 cDNA (Acc. No. NP_848566). Min-6/hGPR119 cells are cultured in DMEM, 10% FBS, 50 μM β-mercaptoethanol, 0.3 mg/mL Geniticin, 2 mM GlutaMAX at 37° C. 5% CO2. For the assay, the cells are seeded in Optiplates (white, 384-well, 160W— barcoded, TC, sterile with lid, Cat.No.#6007688 (Perkin Elmer); 10000 cells/well; 50 μl). The plates covered with lids are then incubated for 24 hours at 37° C./5% CO2. After the medium is aspirated from the wells completely, 10 μl of the test compound are added, the compounds are diluted using stimulating buffer (140 mM NaCl, 3.6 mM KCl, 0.5 mM NaH2PO4, 0.5 mM MgSO4, 1.5 mM CaCl2, 10 mM Hepes, 5 mM NaHCO3; pH 7.4. 0.5 mM IBMX and 0.1% BSA, the final DMSO concentration is 1%). After 45 minutes incubation at room temperature (approx. 20° C.), the cAMP concentrations are determined using the AlphaScreen cAMP Assay Kit (Cat.No.#6760625R from PerkinElmer).
On to `CC(C)(C)OC(=O)N1CCC(C2Cc3cc(-c4ccnc(F)c4)ncc3O2)CC1` (stereo not drawn) [Example 47, 4-[5-(2-Fluoro-pyridin-4-yl)-2,3-dihydro-furo[2,3-c]pyridin-2-yl]-piperidine-1-carboxylic acid tert-butyl ester], for which the concentration giving a half-maximal response (EC50) was determined as 8 nM. With `Cc1nccn1-c1cc2c(cn1)OC(C1CCN(C(=O)OC(C)(C)C)CC1)C2` (stereo not drawn) [Example 70, 4-[5-(2-Methyl-imidazol-1-yl)-2,3-dihydro-furo[2,3-c]pyridin-2-yl]-piperidine-1-carboxylic acid tert-butyl ester] the figure was 706 nM; with `CC(C)(C)OC(=O)N1CCC(C2Cc3cc(-c4ccc(CS(C)(=O)=O)cc4F)ncc3O2)CC1` (single isomer, unassigned) [Example 76], 55 nM.

The compound `CC1(OC(=O)N2CCC(C3Cc4cc(-c5ccc(CS(C)(=O)=O)cc5)ncc4O3)CC2)CC1` (stereo not drawn) [Example 64, 4-[5-(4-Methanesulfonylmethyl-phenyl)-2,3-dihydro-furo[2,3-c]pyridin-2-yl]-piperidine-1-carboxylic acid 1-methyl-cyclopropyl ester] returned an EC50 of 51 nM. In turn, `CC(C)(C)OC(=O)N1CCC(C2Cc3cc(C4CCN(S(C)(=O)=O)CC4)ncc3O2)CC1` (stereo not drawn) [Example 93, 4-[5-(1-Methanesulfonyl-piperidin-4-yl)-2,3-dihydro-furo[2,3-c]pyridin-2-yl]-piperidine-1-carboxylic acid tert-butyl ester] returned a 50% effective concentration (EC50) of 32 nM. The result for `CC(C)OC(=O)N1CCC(C2Cc3cc(-c4ccc(C(=O)NCc5cocn5)cc4)ccc3O2)CC1` (stereo not drawn) [Example 141] reads 40 nM; that for `Cc1noc(C)c1-c1ccc2c(c1)CC(C1CCN(C(=O)OC(C)C)CC1)O2` (stereo not drawn) [Example 106], 1710 nM. The result for `CC(C)OC(=O)N1CCC(C2Cc3cc(-c4cccc(S(C)(=O)=O)c4)ccc3O2)CC1` (stereo not drawn) [Example 107] reads 1120 nM. With `CC(C)S(=O)(=O)c1ccc(-c2cc3c(cn2)OC(C2CCN(C(=O)OC(C)(C)C)CC2)C3)cc1` (stereo not drawn) [Example 65, 4-{5-[4-(Propane-2-sulfonyl)-phenyl]-2,3-dihydro-furo[2,3c]pyridin-2-yl}-piperidine-1-carboxylic acid tert-butyl ester] the figure was 26 nM; with `CC(C)OC(=O)N1CCC(C2Cc3cc(-c4ccc(S(N)(=O)=O)cc4)ccc3O2)CC1` (stereo not drawn) [Example 110], 52 nM. `CC(=O)Nc1nc(C)c(-c2ccc3c(c2)CC(C2CCN(C(=O)OC(C)C)CC2)O3)s1` (stereo not drawn) [Example 178]: a half-maximal effect (EC50) was put at 1200 nM. With `Cc1cc(C#N)cnc1-c1ccc2c(c1)CC(C1CCN(C(=O)OC(C)C)CC1)O2` (stereo not drawn) [Example 8, 4-[5-(5-Cyano-3-methyl-pyridin-2-yl)-2,3-dihydro-benzofuran-2-yl]-piperidine-1-carboxylic acid isopropyl ester] the figure was 228 nM; with `CC(C)(C)OC(=O)N1CCC(C2Cc3cc(-c4cnco4)ccc3O2)CC1` (stereo not drawn) [Example 21, 4-(5-Oxazol-5-yl-2,3-dihydro-benzofuran-2-yl)-piperidine-1-carboxylic acid tert-butyl ester], 77 nM; with `Cc1noc(C)c1-c1cc2c(cn1)OC(C1CCN(C(=O)OC(C)(C)C)CC1)C2` (stereo not drawn) [Example 38, 4-[5-(3,5-Dimethyl-isoxazol-4-yl)-2,3-dihydro-furo[2,3-c]pyridin-2-yl]-piperidine-1-carboxylic acid tert-butyl ester], 573 nM. Compound `CN(C1CCN(c2cc3c(cn2)OC(C2CCN(C(=O)OC(C)(C)C)CC2)C3)CC1)S(C)(=O)=O` (stereo not drawn) [Example 102, 4-{5-[4-(Methanesulfonyl-methyl-amino)-piperidin-1-yl]-2,3-dihydro-furo[2,3-c]pyridin-2-yl}-piperidine-1-carboxylic acid tert-butyl ester] came in with an EC50 of 637 nM. With `COc1cc(-c2cc3c(cn2)OC(C2CCN(C(=O)OC(C)(C)C)CC2)C3)ccn1` (stereo not drawn) [Example 53, 4-[5-(2-Methoxy-pyridin-4-yl)-2,3-dihydro-furo[2,3-c]pyridin-2-yl]-piperidine-1-carboxylic acid tert-butyl ester] the figure was 122 nM; with `CNC(=O)c1ccc(-c2cc3c(cn2)OC(C2CCN(C(=O)OC(C)(C)C)CC2)C3)c(F)c1` (stereo not drawn) [Example 27, 4-[5-(2-Fluoro-4-methylcarbamoyl-phenyl)-2,3-dihydro-furo[2,3-c]pyridin-2-yl]-piperidine-1-carboxylic acid tert-butyl ester], 24 nM.

The compound `CC(C)OC(=O)N1CCC(C2Cc3cc(-c4ccc(C(=O)N(C)CCO)cc4)ccc3O2)CC1` (stereo not drawn) [Example 155] came in with an EC50 of 82 nM. With `COC1CCN(C(=O)c2ccc(-c3ccc4c(c3)CC(C3CCN(C(=O)OC(C)C)CC3)O4)cc2)CC1` (stereo not drawn) [Example 127], a half-maximal response (EC50) required 25 nM. The compound `CC(C)(C)OC(=O)N1CCC(C2Cc3cc(-c4ccc(CC#N)cc4)ncc3O2)CC1` (stereo not drawn) [Example 31, 4-[5-(4-Cyanomethyl-phenyl)-2,3-dihydro-furo[2,3-c]pyridin-2-yl]-piperidine-1-carboxylic acid tert-butyl ester] came in with a half-maximal effective concentration (EC50) of 39 nM. With `CC(C)OC(=O)N1CCC(C2Cc3cc(-c4cncs4)ccc3O2)CC1` (stereo not drawn) [Example 166] the figure was 190 nM. The result for `CC(C)OC(=O)N1CCC(C2Cc3cc(-c4ccc(C(=O)N5CCC(O)C5)cc4)ccc3O2)CC1` (stereo not drawn) [Example 131] reads 95 nM. With `CC(=O)Nc1ccc(-c2ccc3c(c2)CC(C2CCN(C(=O)OC(C)C)CC2)O3)cn1` (stereo not drawn) [Example 161, 4-[5-(6-Acetylamino-pyridin-3-yl)-2,3-dihydro-benzofuran-2-yl]-piperidine-1-carboxylic acid isopropyl ester] the figure was 26 nM; with `CC1(OC(=O)N2CCC([C@]3(C)Cc4cc(C5=CCN(S(C)(=O)=O)CC5)ncc4O3)CC2)CC1` [Example 88, (S)-4-[5-(1-Methanesulfonyl-1,2,3,6-tetrahydro-pyridin-4-yl)-2-methyl-2,3-dihydro-furo[2,3-c]pyridin-2-yl]-piperidine-1-carboxylic acid 1-methyl-cyclopropyl ester], 13 nM; with `CC(C)OC(=O)N1CCC(C2Cc3cc(-c4ccc(S(C)(=O)=O)cc4F)ccc3O2)CC1` (stereo not drawn) [Example 115], 42 nM. Take `CC(C)OC(=O)N1CCC(C2Cc3cc(-c4ccc(CC(=O)N(C)CCO)cc4)ccc3O2)CC1` (stereo not drawn) [Example 156]: it took 132 nM to reach a half-maximal effect (EC50). With `COC(=O)c1cc(-c2ccc3c(c2)CC(C2CCN(C(=O)OC(C)C)CC2)O3)cs1` (stereo not drawn) [Example 116] the figure was 770 nM; with `CC(C)OC(=O)N1CCC(C2Cc3cc(-c4ccc(CC(=O)NCc5cocn5)cc4)ccc3O2)CC1` (stereo not drawn) [Example 142], 208 nM. The result for `CC(C)(C)OC(=O)N1CCC(C2Cc3nc(-c4ccc(S(C)(=O)=O)cc4)ncc3O2)CC1` (stereo not drawn) [Example 22, 4-[2-(4-Methanesulfonyl-phenyl)-6,7-dihydro-furo[3,2-d]pyrimidin-6-yl]-piperidine-1-carboxylic acid tert-butyl ester] reads 45 nM; that for `CC(C)OC(=O)N1CCC([C@]2(C)Cc3cc(-c4ccc(S(C)(=O)=O)cc4)ncc3O2)CC1` [Example 86, (S)-4-[5-(4-Methanesulfonyl-phenyl)-2-methyl-2,3-dihydro-furo[2,3-c]pyridin-2-yl]-piperidine-1-carboxylic acid isopropyl ester], 11 nM.
